Laboratory results published in patent US5683999A, “Cyclic urea HIV protease inhibitors” (The DuPont Merck Pharmaceutical Company, priority 1996, dated 1997).
Values after ≈ are worked out from the molar mass of the structure shown.

System: HIV-1 (RF)
Assay: HIV RNA Assay (HIV-1 infected MT-2 cells)
Assay type: cell-based
Conditions: Human immunodeficiency virus 1, MT2, 72 h; HIV-1 (RF) infected MT-2 cells, 3 days of culture; read-out: IC90 value (concentration of compound required to reduce the HIV RNA level by 90%)
Description: DNA Plasmids and in vitro RNA transcripts
Plasmid pDAB 72 containing both gag and pol sequences of BH10 (bp 113-1816) cloned into PTZ 19R was prepared according to Erickson-Viitanen et al., AIDS Research and Human Retroviruses (1989) 5:577. The plasmid was linearized with Bam HI prior to the generation of in vitro RNA transcripts using the Riboprobe Gemini system II kit (Promega) with T7 RNA polymerase. Synthesized RNA was purified by treatment with RNase free DNAse (Promega), phenol-chloroform extraction, and ethanol precipitation. RNA transcripts were dissolved in water, and stored a -70° C. The concentration of RNA was determined from the A260.
Biotinylated capture probes were purified by HPLC after synthesis on an Applied Biosystems (Foster City, Calif.) DNA synthesizer by addition of biotin to the 5' terminal end of the oligonucleotide, using the biotin-phosphoramidite reagent of Cocuzza, Tet. Lett. (1989) 30:6287. […]
MT-2, CEM, and H9 cells were maintained in RPMI 1640 supplemented with 5% fetal calf serum (FCS), 2 mM L-glutamine and 50 μg/mL gentamycin, all from Gibco. […] Infectious titers of HIV-1(RF) stocks were 1-3×10^7 PFU (plaque forming units)/mL as measured by plaque assay on MT-2 cells (see below). […]

IC90: 0.2 µg/mL (≈ 0.947 µM)
Structure (SMILES): Nc1ccn([C@H]2CC[C@@H](CO)O2)c(=O)n1 [ddC, 2',3'-dideoxycytidine]
